According to article PMC4805166, “Synthetic Cyclolipopeptides Selective against Microbial, Plant and Animal Cell Targets by Incorporation of D-Amino Acids or Histidine” (PLoS ONE, 2016):
Where a SMILES comes first, the peptide text is derived from it. Side-chain parts run from the residue outwards. [ ]: non-standard residue; d: D form. The star is where a group is joined. Pentanoyl(4-Me) = CC(C)CCC(=O)*; Hexanoyl = CCCCCC(=O)*; Butyryl = CCCC(=O)*

Legend:
[1] = test system: Erwinia amylovora PMV6076; assay: MIC, in vitro growth inhibition; assay type: cell-based; details: TSB, 25°C, 48 h, OD 600 nm; tested at 3.1, 6.2, 12.5, 25, 50 μM; three replicates, experiment repeated twice; MIC = lowest concentration with no growth
Procedure, shortened: (§1)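 Peptide dilutions (stocks 500–31.1 μM) mixed 1:10 with 10^8 CFU/mL bacterial suspension in TSB. Incubated 25 °C, OD600 read hourly for 48 h, triplicates, repeated twice. MIC: lowest concentration with no growth at end.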

[2] = test system: Fusarium oxysporum f. sp. lycopersici FOL 3 race 2; assay: MIC, antifungal growth inhibition; assay type: cell-based; details: PDB with 0.003% chloramphenicol, 20°C, seven days, OD 600 nm; tested at 3.1, 6.2, 12.5, 25, 50 μM; three replicates, repeated twice
Procedure, shortened: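 Microconidia are grown on PDA at 25 °C and adjusted to 10^4 conidia/mL. Peptide stocks of 500, 250, 125, 62.5 and 31.1 µM (stock, not final) are mixed with conidia in double-concentrated PDB with 0.003% chloramphenicol, in triplicate, and incubated at 20 °C. OD600 is read every 2 h for seven days, and MIC is the lowest concentration with no growth at the end.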

[3] = test system: E. amylovora, P. syringae pv. syringae, X. axonopodis pv. vesicatoria and F. oxysporum; assay type: cell-based; details: for MIC values over the pathogens tested: span of MIC values over the four pathogens; for Antimicrobial activity, in words: authors' overall judgement over the pathogens tested
Procedure: The following plant pathogenic bacterial strains were used: Erwinia amylovora PMV6076 (Institut National de la Recherche Agronomique, Angers, France), Pseudomonas syringae pv. syringae EPS94 (Institut de Tecnologia Agroalimentària, Universitat de Girona, Spain) and Xanthomonas axonopodis pv. vesicatoria 2133–2 (Instituto Valenciano de Investigaciones Agrarias, Valencia, Spain). All bacteria were stored in Luria Bertani (LB) broth supplemented with glycerol (20%) and maintained at -80°C. Bacteria were scrapped from LB agar after growing for 24–48 h at 25°C. The cell material was suspended in sterile water to obtain a suspension of 10^8 CFU mL^-1.
Fusarium oxysporum f. sp. lycopersici FOL 3 race 2 (ATCC 201829, American Type Culture Collection) was used as fungal pathogen. The strain was cultured on potato dextrose agar (PDA) plates (Difco) and microconidia were obtained after growth at 25°C. The concentration of conidia was determined using a hemacytometer and adjusted to 10^4 conidia mL^-1.
Lyophilized peptides were solubilized in sterile Milli-Q water to a final concentration of 1 mM and filter sterilized through a 0.22-μm pore filter. For minimum inhibitory concentration (MIC) assessment, dilutions of the compounds were made to obtain a stock concentration of […]. For antibacterial activity twenty microlitres of each dilution were mixed in a microtiter plate well with 20 μL of the corresponding suspension of the bacterial indicator, 160 μL of Trypticase Soy Broth (TSB) (BioMèrieux, France) to a total volume of 200 μL. For antifungal activity 20 μL of each stock solution were mixed in a microtiter plate well with 80 μL of the corresponding suspension of the fungal pathogen and 100 μL of double concentrated PDB to a total volume of 200 μL containing 0.003% w/v of choramphenicol.
Three replicates for each strain, compound and concentration were used. Microbial growth was determined by optical density measurement at 600 nm (Bioscreen C, Labsystem, Helsinki, Finland). For antibacterial activity microplates were incubated at 25°C with 20 sec shaking before hourly absorbance measurement for 48 h. For antifungal activity microplates were incubated at 20°C with 1 min shaking before absorbance measurement that were done every two hours during seven days. The experiment was repeated twice. The MIC was taken as the lowest compound concentration with no growth at the end of the experiment.

[4] = test system: Xanthomonas axonopodis pv. vesicatoria 2133–2; assay type: cell-based; details: TSB, 25°C, 48 h, OD 600 nm; tested at 3.1, 6.2, 12.5, 25, 50 μM; three replicates, experiment repeated twice; MIC = lowest concentration with no growth
Procedure, shortened: as §1

[5] = test system: Pseudomonas syringae pv. syringae EPS94; assay type: cell-based; details: 48 h
Procedure, shortened: as §1

[6] = test system: erythrocyte suspensions of horse blood; details: horse erythrocytes 5% vol/vol, TRIS buffer pH 7.2, 1 h at 37°C, absorbance 540 nm, relative to melittin 100 μM, ± confidence interval (α = 0.05); for Hemolysis (%) 150 µM: 150 µM peptide; for Hemolysis (%) 250 µM: 250 µM peptide;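 for all read-outs here: Read-out is hemoglobin release into the supernatant, with a buffer-only blank subtracted as the 0% baseline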
[7] = test system: X. axonopodis pv. vesicatoria; assay: Bactericidal activity (killing assay); assay type: cell-based, Xanthomonas axonopodis pv. vesicatoria; details: 5 μM peptide, LB broth, aliquots every 30 min during 3 h, viable counts; triplicates
Procedure: In a total volume of 5 mL, 4 mL of Luria-Bertani (LB) broth were mixed with 0.5 ml of a suspension of X. axonopodis pv. vesicatoria adjusted to 10^8 CFU mL^-1 and 0.5 mL of the peptide solution at 50 μM (final concentration at 5 μM). Aliquots of 500 μL were removed at 30-min intervals during 3 h and the appropriate dilutions were spread onto LB agar using a spiral plater (Eddy Jet; IUL instruments, Spain). Triplicates were performed and colonies were counted after 48 h of incubation at 25°C with an automatic counter (Flash and Go; IUL instruments, Spain) by incorporating the software CounterMat version 5.0.

SMILES: CCCCCC(=O)NCCCC[C@@H]1NC(=O)[C@H](CCCCN)NC(=O)[C@H](CC(C)C)NC(=O)[C@H](CCCCN)NC(=O)[C@H](CCCCN)NC(=O)[C@H](CCC(N)=O)NC(=O)[C@H](CC(C)C)NC(=O)[C@H](CCCCN)NC(=O)[C@H](CCCCN)NC(=O)[C@H](Cc2ccccc2)NC1=O [BPC528, c(KKLKK(CO-nC5H11)FKKLQ)] (cyclo(FKKLQKKLKK(Hexanoyl)))
- MIC Ea [1]: 12.5 to 25 µM
- MIC Fo [2]: 6.2 to 12.5 µM
- MIC values over the pathogens tested [3]: 3.1 to 25 µM
- MIC against three pathogens ([3]; three of the four pathogens tested): < 12.5 µM
- MIC Xav [4]: 3.1 to 6.2 µM
- MIC Pss [5]: 6.2 to 12.5 µM
- Hemolysis (%) 150 µM [6]: 98 ± 7%

SMILES: CCCCCC(=O)NCCCC[C@@H]1NC(=O)[C@H](CCCCN)NC(=O)[C@H](CCC(N)=O)NC(=O)[C@H](CC(C)C)NC(=O)[C@H](CCCCN)NC(=O)[C@H](CCCCN)NC(=O)[C@H](Cc2ccccc2)NC(=O)[C@H](CCCCN)NC(=O)[C@H](CCCCN)NC(=O)[C@H](CC(C)C)NC1=O [BPC588] (cyclo(FKKLQKK(Hexanoyl)LKK))
- MIC Ea [1]: 12.5 to 25 µM
- MIC Fo [2]: 6.2 to 12.5 µM
- MIC values over the pathogens tested [3]: 3.1 to 25 µM
- MIC Xav [4]: 3.1 to 6.2 µM
- MIC Pss [5]: 6.2 to 12.5 µM
- Hemolysis (%) 150 µM [6]: 95 ± 4%

SMILES: CCCCCC(=O)NCCCC[C@@H]1NC(=O)[C@H](CCC(N)=O)NC(=O)[C@H](CC(C)C)NC(=O)[C@H](CCCCN)NC(=O)[C@H](CCCCN)NC(=O)[C@H](Cc2ccccc2)NC(=O)[C@H](CCCCN)NC(=O)[C@H](CCCCN)NC(=O)[C@H](CC(C)C)NC(=O)[C@H](CCCCN)NC1=O [BPC590] (cyclo(FKKLQK(Hexanoyl)KLKK))
- MIC Ea [1]: 6.2 to 12.5 µM
- MIC Fo [2]: 12.5 to 25 µM
- MIC values over the pathogens tested [3]: 3.1 to 25 µM
- MIC Xav [4]: 3.1 to 6.2 µM
- MIC Pss [5]: 6.2 to 12.5 µM
- Hemolysis (%) 150 µM [6]: 100 ± 9%

SMILES: CCCCCC(=O)N[C@@H](CCCCN)C(=O)N[C@@H](CC(C)C)C(=O)NCCCC[C@@H]1NC(=O)[C@H](CCCCN)NC(=O)[C@H](CC(C)C)NC(=O)[C@H](CCCCN)NC(=O)[C@H](CCCCN)NC(=O)[C@H](CCC(N)=O)NC(=O)[C@H](CC(C)C)NC(=O)[C@H](CCCCN)NC(=O)[C@H](CCCCN)NC(=O)[C@H](Cc2ccccc2)NC1=O [BPC596, c(KKLKK(LK-CO-nC5H11)FKKLQ)] (cyclo(FKKLQKKLKK([Leu-Lys-Hexanoyl])))
- MIC Ea [1]: 12.5 to 25 µM
- MIC Fo [2]: 12.5 to 25 µM
- Antimicrobial activity, in words [3]: important antimicrobial activity
- MIC Xav [4]: <3.1 µM
- MIC Pss [5]: 6.2 to 12.5 µM
- Hemolysis (%) 150 µM [6]: 93 ± 5%
- Hemolysis (%) 250 µM [6]: 100 ± 11%

SMILES: CCCCCC(=O)NCCCC[C@H]1NC(=O)[C@H](CCCCN)NC(=O)[C@H](CC(C)C)NC(=O)[C@H](CCCCN)NC(=O)[C@H](CCCCN)NC(=O)[C@H](CCC(N)=O)NC(=O)[C@H](CC(C)C)NC(=O)[C@H](CCCCN)NC(=O)[C@H](CCCCN)NC(=O)[C@@H](Cc2ccccc2)NC1=O [BPC632, c(KKLKk(CO-nC5H11)fKKLQ)] (cyclo(KKLK[dK](Hexanoyl)[dF]KKLQ))
- MIC Ea [1]: 25 to 50 µM
- MIC Fo [2]: 12.5 to 25 µM
- Antimicrobial activity, in words [3]: low active
- MIC Xav [4]: 25 to 50 µM
- MIC Pss [5]: 12.5 to 25 µM
- Hemolysis (%) 150 µM [6]: 21 ± 13%
- Hemolysis (%) 250 µM [6]: 22 ± 10%

SMILES: CC(C)CCC(=O)NCCCC[C@H]1NC(=O)[C@H](CCCCN)NC(=O)[C@H](CC(C)C)NC(=O)[C@H](CCCCN)NC(=O)[C@H](CCCCN)NC(=O)[C@H](CCC(N)=O)NC(=O)[C@H](CC(C)C)NC(=O)[C@H](CCCCN)NC(=O)[C@H](CCCCN)NC(=O)[C@@H](Cc2ccccc2)NC1=O [BPC634, c(KKLKk(CO-isoC5H11)fKKLQ)] (cyclo(KKLK[dK](Pentanoyl(4-Me))[dF]KKLQ))
- MIC Ea [1]: >50 µM
- MIC Fo [2]: 6.2 to 12.5 µM
- Antimicrobial activity, in words [3]: low active
- MIC Xav [4]: 25 to 50 µM
- MIC Pss [5]: 12.5 to 25 µM
- Hemolysis (%) 150 µM [6]: 7 ± 1%
- Hemolysis (%) 250 µM [6]: 17 ± 8%

SMILES: CCCCCC(=O)N[C@@H](CCCCN)C(=O)N[C@@H](CC(C)C)C(=O)NCCCC[C@@H]1NC(=O)[C@H](CCCCN)NC(=O)[C@H](CC(C)C)NC(=O)[C@H](CCCCN)NC(=O)[C@H](CCCCN)NC(=O)[C@H](CCC(N)=O)NC(=O)[C@H](CC(C)C)NC(=O)[C@H](CCCCN)NC(=O)[C@H](CCCCN)NC(=O)[C@H](Cc2c[nH]cn2)NC1=O [BPC676, c(KKLKK(LK-CO-nC5H11)HKKLQ)] (cyclo(HKKLQKKLKK([Leu-Lys-Hexanoyl])))
- MIC Ea [1]: 25 to 50 µM
- MIC Fo [2]: 3.1 to 6.2 µM
- MIC Xav [4]: 6.2 to 12.5 µM
- MIC Pss [5]: 12.5 to 25 µM
- Hemolysis (%) 150 µM [6]: 3 ± 0.3%
- Bactericidal activity (kinetics of survival) [7]: bactericidal activity

SMILES: CCCCCC(=O)NCCCC[C@@H]1NC(=O)[C@H](CCC(N)=O)NC(=O)[C@H](CC(C)C)NC(=O)[C@H](CCCCN)NC(=O)[C@H](CCCCN)NC(=O)[C@@H](Cc2ccccc2)NC(=O)[C@H](CCCCN)NC(=O)[C@H](CCCCN)NC(=O)[C@H](CC(C)C)NC(=O)[C@H](CCCCN)NC1=O [BPC686, c(K(CO-nC5H11)KLKKfKKLQ)] (cyclo(K(Hexanoyl)KLKK[dF]KKLQ))
- MIC Ea [1]: 25 to 50 µM
- MIC Fo [2]: 12.5 to 25 µM
- MIC Xav [4]: 6.2 to 12.5 µM
- MIC Pss [5]: 12.5 to 25 µM
- Hemolysis (%) 150 µM [6]: 10 ± 0.2%
- Hemolysis (%) 250 µM [6]: 14 ± 0.4%
- Bactericidal activity (kinetics of survival) [7]: bactericidal activity

SMILES: CCCC(=O)NCCCC[C@@H]1NC(=O)[C@H](CCCCN)NC(=O)[C@H](CCC(N)=O)NC(=O)[C@H](CC(C)C)NC(=O)[C@H](CCCCN)NC(=O)[C@H](CCCCN)NC(=O)[C@H](Cc2ccccc2)NC(=O)[C@H](CCCCN)NC(=O)[C@H](CCCCN)NC(=O)[C@H](CC(C)C)NC1=O [BPC708] (cyclo(FKKLQKK(Butyryl)LKK))
- MIC Ea [1]: 25 to 50 µM
- MIC Fo [2]: 3.1 to 6.2 µM
- Antimicrobial activity, in words [3]: active
- MIC Xav [4]: 6.2 to 12.5 µM
- MIC Pss [5]: 12.5 to 25 µM
- Hemolysis (%) 150 µM [6]: 2 ± 0.5%
- Hemolysis (%) 250 µM [6]: 3 ± 1%

SMILES: CCCC(=O)NCCCC[C@@H]1NC(=O)[C@H](CCCCN)NC(=O)[C@H](CCC(N)=O)NC(=O)[C@H](CC(C)C)NC(=O)[C@H](CCCCN)NC(=O)[C@H](CCCCN)NC(=O)[C@@H](Cc2ccccc2)NC(=O)[C@H](CCCCN)NC(=O)[C@H](CCCCN)NC(=O)[C@H](CC(C)C)NC1=O [BPC714, c(KK(CO-C3H7)LKKfKKLQ)] (cyclo(KK(Butyryl)LKK[dF]KKLQ))
- MIC Ea [1]: 25 to 50 µM
- MIC Fo [2]: 6.2 to 12.5 µM
- MIC Xav [4]: 12.5 to 25 µM
- MIC Pss [5]: 25 to 50 µM
- Hemolysis (%) 150 µM [6]: 3 ± 1%
- Hemolysis (%) 250 µM [6]: 3 ± 0.5%
- Bactericidal activity (kinetics of survival) [7]: bactericidal activity
